Laboratory results as given in patent publication US9365572B2, “PI3K and/or mTOR inhibitor” (XUANZHU PHARMA CO., LTD., priority 2012, dated 2016).

Key:
Adenosine A2A = Adenosine A2A (Homo sapiens (Human), UniProt P29274); experiment: Radioligand binding assay No. 200610; conditions: test substance 10 μM, read-out: Inhibitory rate (%), Adenosine A2A
[1] = target: Androgen (Testosterone) AR (Rattus norvegicus (Rat), UniProt P15207); experiment: Radioligand binding assay No. 285010; conditions: test substance 10 μM, read-out: Inhibitory rate (%), Androgen (Testosterone) AR
Chain of Androgen (Testosterone) AR (P15207 whole entry S389L): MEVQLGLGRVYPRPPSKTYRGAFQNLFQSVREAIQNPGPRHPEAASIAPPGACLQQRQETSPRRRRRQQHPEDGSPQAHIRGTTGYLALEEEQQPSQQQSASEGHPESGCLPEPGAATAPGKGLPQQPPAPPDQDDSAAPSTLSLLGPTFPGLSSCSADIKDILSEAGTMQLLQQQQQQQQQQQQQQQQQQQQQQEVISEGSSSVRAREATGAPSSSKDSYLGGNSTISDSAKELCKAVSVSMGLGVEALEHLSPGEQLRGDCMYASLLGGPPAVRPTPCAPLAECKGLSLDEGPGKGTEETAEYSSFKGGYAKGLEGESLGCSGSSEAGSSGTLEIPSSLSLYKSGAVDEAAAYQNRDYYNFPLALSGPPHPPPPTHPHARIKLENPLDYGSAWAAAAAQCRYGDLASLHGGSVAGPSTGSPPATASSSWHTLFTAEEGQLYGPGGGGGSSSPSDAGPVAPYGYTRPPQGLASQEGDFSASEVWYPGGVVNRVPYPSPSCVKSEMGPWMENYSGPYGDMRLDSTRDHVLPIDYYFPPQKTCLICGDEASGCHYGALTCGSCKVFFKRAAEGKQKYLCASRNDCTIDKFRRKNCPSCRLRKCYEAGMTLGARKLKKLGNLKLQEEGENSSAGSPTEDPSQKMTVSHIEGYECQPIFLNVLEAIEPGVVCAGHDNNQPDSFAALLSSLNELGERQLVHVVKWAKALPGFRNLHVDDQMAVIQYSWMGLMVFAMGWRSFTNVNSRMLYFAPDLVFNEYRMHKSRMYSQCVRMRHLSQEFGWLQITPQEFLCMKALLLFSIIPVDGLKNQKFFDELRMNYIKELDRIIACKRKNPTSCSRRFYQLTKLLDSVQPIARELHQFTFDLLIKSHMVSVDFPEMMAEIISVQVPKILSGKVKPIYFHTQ

Bradykinin B1 = Bradykinin B1 (Homo sapiens (Human), UniProt P46663); experiment: Radioligand binding assay No. 212510; conditions: test substance 10 μM, read-out: Inhibitory rate (%), Bradykinin B1
Chain of Bradykinin B1 (P46663 whole entry): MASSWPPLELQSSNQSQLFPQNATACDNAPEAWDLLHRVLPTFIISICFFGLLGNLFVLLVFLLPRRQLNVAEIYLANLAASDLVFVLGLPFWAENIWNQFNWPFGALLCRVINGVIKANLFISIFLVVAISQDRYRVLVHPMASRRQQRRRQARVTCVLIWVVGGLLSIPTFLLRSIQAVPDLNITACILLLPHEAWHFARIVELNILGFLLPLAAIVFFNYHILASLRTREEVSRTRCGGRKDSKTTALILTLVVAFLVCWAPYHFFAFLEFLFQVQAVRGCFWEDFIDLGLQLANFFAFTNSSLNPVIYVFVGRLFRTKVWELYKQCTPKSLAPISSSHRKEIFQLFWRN

Cannabinoid CB1 = Cannabinoid CB1 (Homo sapiens (Human), UniProt P21554); experiment: Radioligand binding assay No. 217030; conditions: test substance 10 μM, read-out: Inhibitory rate (%), Cannabinoid CB1
Chain of Cannabinoid CB1 (P21554 whole entry): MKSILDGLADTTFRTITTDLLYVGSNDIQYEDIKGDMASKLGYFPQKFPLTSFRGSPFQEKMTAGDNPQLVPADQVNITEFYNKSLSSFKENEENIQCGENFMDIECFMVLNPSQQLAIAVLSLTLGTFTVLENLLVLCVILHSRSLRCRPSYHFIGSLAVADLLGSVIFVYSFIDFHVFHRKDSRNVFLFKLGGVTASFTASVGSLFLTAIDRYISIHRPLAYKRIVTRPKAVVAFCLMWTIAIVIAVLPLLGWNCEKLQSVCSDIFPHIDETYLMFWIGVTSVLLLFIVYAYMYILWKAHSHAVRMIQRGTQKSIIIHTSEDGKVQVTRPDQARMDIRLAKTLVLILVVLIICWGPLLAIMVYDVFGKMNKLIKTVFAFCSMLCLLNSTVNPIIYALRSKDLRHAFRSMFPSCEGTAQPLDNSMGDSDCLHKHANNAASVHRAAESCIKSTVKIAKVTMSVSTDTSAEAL

Dopamine D3 = Dopamine D3 (Homo sapiens (Human), UniProt P35462); experiment: Radioligand binding assay No. 219800; conditions: test substance 10 μM, read-out: Inhibitory rate (%), Dopamine D3
Chain of Dopamine D3 (P35462 whole entry): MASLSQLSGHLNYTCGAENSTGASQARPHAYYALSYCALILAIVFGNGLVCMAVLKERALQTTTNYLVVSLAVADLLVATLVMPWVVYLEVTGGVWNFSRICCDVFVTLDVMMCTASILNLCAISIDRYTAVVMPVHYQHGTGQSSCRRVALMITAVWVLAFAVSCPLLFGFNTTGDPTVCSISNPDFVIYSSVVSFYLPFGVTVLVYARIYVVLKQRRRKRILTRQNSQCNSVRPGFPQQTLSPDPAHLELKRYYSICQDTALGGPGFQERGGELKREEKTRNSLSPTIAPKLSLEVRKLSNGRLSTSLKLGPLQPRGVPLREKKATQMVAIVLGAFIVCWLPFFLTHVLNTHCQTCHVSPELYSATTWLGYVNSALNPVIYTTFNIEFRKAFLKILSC

GABAA, Muscimol, Central = experiment: Radioligand binding assay No. 226500; conditions: test substance 10 μM; rat
Glucocorticoid = Glucocorticoid (Homo sapiens (Human), UniProt P04150); experiment: Radioligand binding assay No. 232030; conditions: test substance 10 μM, read-out: Inhibitory rate (%), Glucocorticoid
Chain of Glucocorticoid (P04150 whole entry): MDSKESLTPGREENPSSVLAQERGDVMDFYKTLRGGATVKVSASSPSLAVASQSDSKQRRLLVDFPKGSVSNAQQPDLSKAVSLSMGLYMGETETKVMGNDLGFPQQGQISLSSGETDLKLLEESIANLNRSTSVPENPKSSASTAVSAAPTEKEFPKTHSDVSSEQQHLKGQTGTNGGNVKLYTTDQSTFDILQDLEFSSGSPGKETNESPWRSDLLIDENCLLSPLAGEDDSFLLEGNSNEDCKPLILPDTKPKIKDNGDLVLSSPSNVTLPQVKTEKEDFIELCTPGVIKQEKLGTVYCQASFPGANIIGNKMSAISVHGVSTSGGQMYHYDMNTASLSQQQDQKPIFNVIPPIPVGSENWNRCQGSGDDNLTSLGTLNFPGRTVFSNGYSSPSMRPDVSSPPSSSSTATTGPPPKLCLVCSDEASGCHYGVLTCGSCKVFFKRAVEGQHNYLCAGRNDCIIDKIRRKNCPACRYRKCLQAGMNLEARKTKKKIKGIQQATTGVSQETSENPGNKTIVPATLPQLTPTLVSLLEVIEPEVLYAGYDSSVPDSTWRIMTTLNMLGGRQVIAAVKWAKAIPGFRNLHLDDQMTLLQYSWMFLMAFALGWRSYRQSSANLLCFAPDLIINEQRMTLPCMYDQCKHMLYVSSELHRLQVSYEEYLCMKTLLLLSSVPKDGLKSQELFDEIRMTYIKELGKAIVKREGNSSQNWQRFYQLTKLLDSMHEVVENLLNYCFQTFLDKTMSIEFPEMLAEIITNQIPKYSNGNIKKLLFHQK

Histamine H1 = Histamine H1 (Homo sapiens (Human), UniProt P35367); experiment: Radioligand binding assay No. 239610; conditions: test substance 10 μM, read-out: Inhibitory rate (%), Histamine H1
Chain of Histamine H1 (P35367 whole entry): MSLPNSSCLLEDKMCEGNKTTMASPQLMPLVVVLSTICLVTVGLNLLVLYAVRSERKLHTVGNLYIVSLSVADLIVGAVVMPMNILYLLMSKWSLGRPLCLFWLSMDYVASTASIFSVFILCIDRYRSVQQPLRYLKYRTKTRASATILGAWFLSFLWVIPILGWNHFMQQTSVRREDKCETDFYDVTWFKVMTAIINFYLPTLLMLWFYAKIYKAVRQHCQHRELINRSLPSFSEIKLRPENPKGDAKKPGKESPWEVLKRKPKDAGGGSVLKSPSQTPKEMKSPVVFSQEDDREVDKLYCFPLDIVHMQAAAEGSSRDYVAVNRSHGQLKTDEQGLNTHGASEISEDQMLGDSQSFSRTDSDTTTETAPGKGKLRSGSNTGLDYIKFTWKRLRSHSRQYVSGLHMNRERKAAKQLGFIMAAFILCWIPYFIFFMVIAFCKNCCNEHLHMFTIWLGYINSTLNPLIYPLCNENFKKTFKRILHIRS

Melatonin MT1 = Melatonin MT1 (Homo sapiens (Human), UniProt P48039); experiment: Radioligand binding assay No. 251600; conditions: test substance 10 μM, read-out: Inhibitory rate (%), Melatonin MT1
Chain of Melatonin MT1 (P48039 whole entry): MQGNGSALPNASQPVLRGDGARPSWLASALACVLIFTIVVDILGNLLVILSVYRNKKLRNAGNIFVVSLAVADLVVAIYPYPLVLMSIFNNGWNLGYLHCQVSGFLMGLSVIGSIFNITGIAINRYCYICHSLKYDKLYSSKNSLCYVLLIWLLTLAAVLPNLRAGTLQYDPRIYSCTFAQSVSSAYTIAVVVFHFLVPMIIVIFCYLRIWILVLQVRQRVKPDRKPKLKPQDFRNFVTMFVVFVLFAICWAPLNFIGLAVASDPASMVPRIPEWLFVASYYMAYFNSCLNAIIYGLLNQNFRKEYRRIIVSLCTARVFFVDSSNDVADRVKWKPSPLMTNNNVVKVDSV

Muscarinic M1 = Muscarinic M1 (Homo sapiens (Human), UniProt P11229); experiment: Radioligand binding assay No. 252610; conditions: test substance 10 μM, read-out: Inhibitory rate (%), Muscarinic M1
Muscarinic M2 = Muscarinic M2 (Homo sapiens (Human), UniProt P08172); experiment: Radioligand binding assay No. 252710; conditions: test substance 10 μM, read-out: Inhibitory rate (%), Muscarinic M2
Chain of Muscarinic M2 (P08172 whole entry): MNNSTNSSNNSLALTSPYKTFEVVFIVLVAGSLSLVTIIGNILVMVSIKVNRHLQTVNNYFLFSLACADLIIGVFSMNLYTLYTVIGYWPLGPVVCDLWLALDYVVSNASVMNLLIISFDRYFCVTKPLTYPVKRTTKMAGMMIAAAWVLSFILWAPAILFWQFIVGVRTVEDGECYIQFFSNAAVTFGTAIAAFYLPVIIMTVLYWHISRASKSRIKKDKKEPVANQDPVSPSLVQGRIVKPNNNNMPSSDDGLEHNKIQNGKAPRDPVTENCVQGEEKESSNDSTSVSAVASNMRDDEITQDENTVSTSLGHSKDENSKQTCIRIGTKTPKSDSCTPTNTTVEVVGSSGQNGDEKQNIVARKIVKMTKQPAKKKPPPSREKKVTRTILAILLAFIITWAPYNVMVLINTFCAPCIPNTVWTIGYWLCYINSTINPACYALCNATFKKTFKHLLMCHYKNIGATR

Opiate κ(OP2, KOP) = Opiate κ(OP2, KOP) (Homo sapiens (Human), UniProt P41145); experiment: Radioligand binding assay No. 260210; conditions: test substance 10 μM, read-out: Inhibitory rate (%), Opiate κ(OP2, KOP)
Rolipram = experiment: Radioligand binding assay No. 270000; conditions: test substance 10 μM; rat
Transporter, GABA = experiment: Radioligand binding assay No. 226400; conditions: test substance 10 μM; rat
[2] = target: Transporter, Norepinephrine (NET) (Homo sapiens (Human), UniProt P23975); experiment: Radioligand binding assay No. 204410; conditions: test substance 10 μM, read-out: Inhibitory rate (%), Transporter, Norepinephrine (NET)
Chain of Transporter, Norepinephrine (NET) (P23975 whole entry): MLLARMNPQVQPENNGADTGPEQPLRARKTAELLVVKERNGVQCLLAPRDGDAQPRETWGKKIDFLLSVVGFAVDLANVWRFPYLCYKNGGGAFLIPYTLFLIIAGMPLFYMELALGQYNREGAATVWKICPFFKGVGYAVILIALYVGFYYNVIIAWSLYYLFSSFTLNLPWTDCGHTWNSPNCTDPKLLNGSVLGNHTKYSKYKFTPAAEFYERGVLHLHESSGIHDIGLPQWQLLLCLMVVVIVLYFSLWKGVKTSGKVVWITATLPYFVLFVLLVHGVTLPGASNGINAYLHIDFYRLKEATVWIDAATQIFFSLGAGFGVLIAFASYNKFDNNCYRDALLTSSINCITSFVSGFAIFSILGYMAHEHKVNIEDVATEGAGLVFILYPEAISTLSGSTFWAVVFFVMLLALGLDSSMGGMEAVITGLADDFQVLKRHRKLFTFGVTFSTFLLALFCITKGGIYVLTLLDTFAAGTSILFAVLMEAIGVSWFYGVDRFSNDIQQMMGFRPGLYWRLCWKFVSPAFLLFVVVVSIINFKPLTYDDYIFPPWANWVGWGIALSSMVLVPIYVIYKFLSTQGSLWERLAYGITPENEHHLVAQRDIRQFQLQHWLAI

Lovo = experiment: In vitro cytological inhibitory activity (XTT); assay type: cell-based; conditions: Homo sapiens, 72 hrs
Description: Lovo: Human colon carcinoma cell line;
(§1) 1. Preparation of agents and compounds:
(§2) • 1.1 Preparation of phosphoric acid buffering solution (PBS): 8 g NaCl, 0.2 g KCl, 1.44 g Na2HPO4 and 0.24 g KH2PO4 were weighed and added to 800 mL ultrapure water. The mixture was adjusted to pH=7.4, and ultrapure water was added to the metered volume of IL. Then the autoclaving was conducted for 20 mins. • 1.2 Preparation of XTT detection working solution: 100 mg (2,3-Bis-(2-methoxy-4-nitro-5-sulfophenyl)-2H-tetrazolium-5-carboxanilide); 2,3-bis(2-methoxy-4-nitro-5-sulfophenyl)-5-[(phenylamino)carbonyl]-2H-tetrazolium hydroxide (XTT) powder was weighed, and dissolved under protection from light 300 mL of phenol red-free and serum-free RPMI1640 culture, which had been warmed up to 50° C. The resulting mixture was filtered, packaged and used immediately or in one week. The complete process was conducted under protection from light. • 1.3 Preparation of the test compound • Preparation of the stock solution of the test compound: The test compound powder was dissolved in DMSO in a concentration of 10 mM. • Preparation of the gradiently diluted solution of the test compound: 10 mM of the stock solution of the test compound was successively and gradiently diluted with DMSO by 4 folds for 10 concentrations. […]

A498 = experiment: In vitro cytological inhibitory activity (XTT); assay type: cell-based; conditions: Homo sapiens, 72 hrs
Description: A498: Human renal carcinoma cell line.
as §1, §2

SKOV-3 = experiment: In vitro cytological inhibitory activity (XTT); assay type: cell-based; conditions: Homo sapiens, SK-OV-3, 72 hrs
Description: SKOV-3: Human ovarian cancer cell line;
as §1, §2

| IC50 (SKOV-3) [nM] | SMILES | inhibition at 10 µM (Adenosine A2A) [%] | inhibition at 10 µM [1] [%] | inhibition at 10 µM (Bradykinin B1) [%] | inhibition at 10 µM (Cannabinoid CB1) [%] | inhibition at 10 µM (Dopamine D3) [%] | Inhibitory rate (%), GABAA, Muscimol, Central (GABAA, Muscimol, Central) [%] | inhibition at 10 µM (Glucocorticoid) [%] | inhibition at 10 µM (Histamine H1) [%] | inhibition at 10 µM (Melatonin MT1) [%] | inhibition at 10 µM (Muscarinic M1) [%] | inhibition at 10 µM (Muscarinic M2) [%] | inhibition at 10 µM (Opiate κ(OP2, KOP)) [%] | Inhibitory rate (%), Rolipram (Rolipram) [%] | Inhibitory rate (%), Transporter, GABA (Transporter, GABA) [%] | inhibition at 10 µM [2] [%] | IC50 (Lovo) [nM] | IC50 (A498) [nM] |
| --- | --- | --- | --- | --- | --- | --- | --- | --- | --- | --- | --- | --- | --- | --- | --- | --- | --- | --- |
| – | Nc1ccc(-c2ccc3ncc4c(=O)[nH]c(=O)n(-c5cccc(C(F)(F)F)c5)c4c3n2)cn1 [Compound 5, 9-(6-aminopyridin-3-yl)-1-(3-(trifluoromethyl)phenyl)pyrimido[5,4-c][1,5]naphthyridine-2,4(1H,3H)-dione] | 0 | 30 | 0 | 25 | 15 | 18 | -4 | 10 | 17 | 18 | -4 | 10 | 20 | 12 | -5 | 50.1 | 83.7 |
| 57.2 | O=c1[nH]c(=O)n(-c2cccc(C(F)(F)F)c2)c2c1cnc1ccc(-c3cnc4[nH]ccc4c3)nc12 [Compound 30, 9-(1H-pyrrolo[2,3-b]pyridin-5-yl)-1-(3-(trifluoromethyl)phenyl)pyrimido[5,4-c][1,5]naphthyridine-2,4(1H,3H)-dione] | – | – | – | – | – | – | – | – | – | – | – | – | – | – | – | – | – |
